Measurements: patent US20070299084A1, “Indole Derivatives Useful for Treating Resistance to Antitumor Agents” (NIKEM RESE S.R.L., priority 2004, published 2007)

Test system: H460 cells (human lung carcinoma)
Assay: Migration assay (Transwell chemotaxis)
Type: cell-based
Conditions: after 24 h incubation
Experimental: Human Lung Carcinoma:H460: maintained in RPMI1640 medium+10% FCS.
H460 cells were seeded in complete medium and treated with different compound concentrations for 24 h. Then, cells were harvested and transferred to 24-well Transwell chambers (Costar) in serum-free medium in the following ways:
migration assay: 1.2×10^5 cells/well were seeded in the upper chamber, and the drug was added, in the same concentrations utilized before, in both upper and lower chambers. After 4 h of incubation at 37° C., migrated cells were fixed in 95% ethanol, stained with a 2% crystal violet in 70% ethanol solution, and counted by an inverted microscope.

Work on `CCOc1cc(C(=O)NC2CC(C)(C)NC(C)(C)C2)ccc1-c1cc2cc(Cl)c(Cl)cc2[nH]1` [Example 2] yielded an inhibition at 2.2 µM (NCI-H460, 2.2 μM) of 51% and an inhibition at 5.7 µM (NCI-H460, 5.7 μM) of 92%.
